Test results reported in patent US10822337B2, “TGF-β inhibitorC” (Rigel Pharmaceuticals, Inc., priority 2015, dated 2020).

Tests used:
[1] = system: TGF-β signaling (TGF-β pSMAD, MPC-11); experiment: AlphaScreen SureFire SMAD3 (p-Ser423/425) assay, inhibition of TGF-β signaling; assay type: cell-based; conditions: Mus musculus, p-SMAD-3 (Ser423/425) in cell lysate after TGF-β stimulation
Description: (§1) Example 2: AlphaScreen® SureFire® SMAD3 (p-Ser423/425) Assay
(§2) The p-SMAD-3 (Ser423/425) SureFire® assay has been designed to measure the phosphorylation of endogenous cellular p-SMAD-3 (Ser423/425) in cell lysates and is a system for the screening of both modulators of receptor activation (e.g. agonists and antagonists) as well as agents acting intracellularly, such as small molecule inhibitors of upstream events. The assay will measure p-SMAD-3 (Ser423/425) activation by either cloned or endogenous receptors, and can be applied to primary cells.
(§3) 1× Lysis buffer: 1 ml of 5× Lysis buffer was diluted with 4 ml of sterile water. After dilution, excess 1× Lysis buffer can be frozen and thawed up to 5 times without loss in activity.
(§4) P-SMAD-3 (Ser423/425) SureFire® Assay Protocols
(§5) Step A: Preparation of Buffers
(§6) Activation buffer: The buffer was warmed slowly to 37° C. and gently mixed to re-suspend. Activation buffer can be stored at room temperature with no loss in activity.
(§7) Reaction buffer: The buffer was kept at 4° C. while in use.
(§8) AlphaScreen® Protein A IgG Kit: The kit was stored at 4° C. in the dark.
(§9) Reaction buffer+Activation buffer+AlphaScreen® Acceptor beads: Reaction buffer (40 parts), Activation Buffer (10 parts) and Acceptor beads (1 part) were mixed and the mixture was stored at room temperature and used the same day. Mixture was added to 384-well plates; excess mixturewas discarded.
(§10) Dilution buffer+AlphaScreen® Donor beads: Dilution buffer (20 parts) and Donor beads (1 part) were mixed and the mixture was stored at room temperature and used the same day. Excess mixture was discarded.
(§11) Assay control samples: After reconstitution in 250 μl of water, lysates were at −20° C. in single use aliquots.
(§12) Step B: Preparation of Samples and Cells
(§13) 96-well Assay Protocol for 293FT and RMS13 adherent cells can be carried out manually or in high throughput with liquid handling robots.
(§14) The cells (80 μL of cells for 96 well plates) were plated in collagen coated tissue culture plates in RPMI or FreeStyle medium (Invitrogen) and incubated overnight. For manual analysis, 6 plates for GDF8, 6 plates for TGFβ, and optionally 6 plates for Alk5ca(ALKS constitutively active) were used.
(§15) The compound dilution plates were prepared as follows: 12 μL of DMSO was transferred into first column of 96-well plate, and 16 μL of DMSO was transferred into columns 2-12 of the 96-well plate. 12 μL of compound solution was transferred into first column of the DMSO-containing 96-well plate. Three-fold dilution was performed up to column 10 of the DMSO-containing 96-well plate.
(§16) Step C: Treatment and Analysis
(§17) The plate containing cells were treated with compounds for about 10 minutes, and then ligand was added. GDF8 or TGFb was added to plates to stimulate. 293FL cells were stimulatedfor 90 minutes at 37° C.; and RMS13 cells were stimulated for 60 minutes at 37° C. The medium was then removed from the cells, and 1× Lysis Buffer (about 25 μL) was added and the plate was gently agitated on plate shaker for 5-10 minutes.
(§18) The lysate (5 μL) was then placed into 384-well shallow plates avoiding the generation of bubbles. To this, the Reaction Buffer+Activation Buffer+AlphaScreen® Acceptor beadsmixture (5 μL) was added. The plate was sealed with adhesive cover and shielded from light (e.g., with metal foil), and agitated gently on plate shaker for 2 hours at room temperature.
(§19) Dilution buffer+AlphaScreen® Donor beads (2 μL) was then added, and the plate was intubated on the plate shaker for an additional 1½ hours. After completion, the plate was read on Synergy-4 or Enspire plate reader, using AlphaScreen® pSMAD3® settings.
(§20) Representative results for inhibition of GDF8 (data=GDF pSMAD (MPC11) (μM)) and TGF-β (data=TGF-β pSMAD (MPC-11) (μM)) signaling are shown in Table 1: […]

[2] = system: GDF8 signaling (GDF pSMAD, MPC11); experiment: AlphaScreen SureFire SMAD3 (p-Ser423/425) assay, inhibition of GDF8 signaling; assay type: cell-based; conditions: Mus musculus, MPC-11, p-SMAD-3 (Ser423/425) in cell lysate after GDF8 stimulation
Description: as §1, §2, §3, §4, §5, §6, §7, §8, §9, §10, §11, §12, §13, §14, §15, §16, §17, §18, §19, §20

Row | SMILES | IC50 [1] [nM] | IC50 [2] [nM]
1 | Fc1cc(F)c(-c2nn3c(c2-c2ccc4nccnc4c2)CCC3)cc1Cl [Compound 191, 6-(2-(5-Chloro-2,4-difluorophenyl)-5,6-dihydro-4H-pyrrolo[1,2-b]pyrazol-3-yl)quinoxaline] | 212 | 74
2 | Fc1ccc(-c2nn3c(c2-c2ccc4cn[nH]c4c2)CCC3)cc1F [Compound 84, 6-(2-(3,4-Difluorophenyl)-5,6-dihydro-4H-pyrrolo[1,2-b]pyrazol-3-yl)-1H-indazole] | 1610 | 326
3 | Cc1cc(-c2nn3c(c2-c2ccc4nccnc4c2)CCC3)ccc1F [Compound 55, 6-(2-(4-Fluoro-3-methylphenyl)-5,6-dihydro-4H-pyrrolo[1,2-b]pyrazol-3-yl)quinoxaline] | 525 | 173
4 | Fc1ccccc1-c1nn2c(c1-c1ccc3ncnn3c1)CCC2 [Compound 137, 6-(2-(2-Fluorophenyl)-5,6-dihydro-4H-pyrrolo[1,2-b]pyrazol-3-yl)-[1,2,4]triazolo[1,5-a]pyridine] | 660 | 144
5 | Cc1cccc(-c2nn3c(c2-c2ccc4nccn4c2)OCCC3)c1 [Compound 42, 3-(Imidazo[1,2-a]pyridin-6-yl)-2-(m-tolyl)-6,7-dihydro-5H-pyrazolo[5,1-b][1,3]oxazine] | 331 | 112
6 | COc1cccc(-c2nn3c(c2-c2ccc4ncnn4c2)CCC3)c1 [Compound 106, 6-(2-(3-Methoxyphenyl)-5,6-dihydro-4H-pyrrolo[1,2-b]pyrazol-3-yl)-[1,2,4]triazolo[1,5-a]pyridine] | 600 | 159
7 | Fc1cc(F)c(-c2nn3c(c2-c2ccc4ncsc4c2)CCC3)cc1F [Compound 116, 6-(2-(2,4,5-Trifluorophenyl)-5,6-dihydro-4H-pyrrolo[1,2-b]pyrazol-3-yl)benzo[d]thiazole] | 186 | 27.6
8 | Fc1ccc(-c2nn3c(c2-c2ccc4nccn4c2)CCC3)cc1OC(F)(F)F [Compound 151, 6-(2-(4-Fluoro-3-trifluoromethoxyphenyl)-5,6-dihydro-4H-pyrrolo[1,2-b]pyrazol-3-yl)imidazo[1,2-a]pyridine] | 1160 | 389
9 | Cc1cc(-c2nn3c(c2-c2ccc4nccnc4c2)CCC3)c(F)cc1F [Compound 184, 6-(2-(2,4-Difluoro-5-methylphenyl)-5,6-dihydro-4H-pyrrolo[1,2-b]pyrazol-3-yl)quinoxaline] | 302 | 139
10 | Fc1ccc(-c2nn3c(c2-c2ccc4ncnn4c2)CCC3)c(F)c1F [Compound 133, 6-(2-(2,3,4-Trifluorophenyl)-5,6-dihydro-4H-pyrrolo[1,2-b]pyrazol-3-yl)-[1,2,4]triazolo[1,5-a]pyridine] | 701 | 247
11 | COc1cccc(-c2nn3c(c2-c2ccc4ncsc4c2)OCC3)c1 [Compound 74, 7-(Benzo[d]thiazol-6-yl)-6-(3-methoxyphenyl)-2,3-dihydropyrazolo[5,1-b]oxazole] | 1040 | 243
12 | FC(F)(F)c1cccc(-c2nn3c(c2-c2ccc4ncccc4c2)CCC3)c1 [Compound 50, 6-(2-(3-Trifluoromethylphenyl)-5,6-dihydro-4H-pyrrolo[1,2-b]pyrazol-3-yl)quinoline] | 4190 | 473
13 | Fc1ccccc1-c1nn2c(c1-c1ccc3nccn3c1)CCC2 [Compound 135, 6-(2-(2-Fluorophenyl)-5,6-dihydro-4H-pyrrolo[1,2-b]pyrazol-3-yl)imidazo[1,2-a]pyridine] | 2150 | 924
14 | Cc1cc(-c2nn3c(c2-c2ccc4c(cnn4C)c2)CCC3)ccc1F [Compound 15, 5-(2-(4-Fluoro-3-methylphenyl)-5,6-dihydro-4H-pyrrolo[1,2-b]pyrazol-3-yl)-1-methyl-1H-indazole] | 2740 | 987
15 | Fc1ccc(-c2nn3c(c2-c2ccc4cn[nH]c4c2)OCC3)cc1 [Compound 65, 6-(4-Fluorophenyl)-7-(1H-indazol-6-yl)-2,3-dihydropyrazolo[5,1-b]oxazole] | 881 | 143
16 | FC(F)(F)Oc1cccc(-c2nn3c(c2-c2ccc4ncsc4c2)CCC3)c1 [Compound 125, 6-(2-(3-Trifluoromethoxyphenyl)-5,6-dihydro-4H-pyrrolo[1,2-b]pyrazol-3-yl)benzo[d]thiazole] | 124 | 160
17 | COc1ccc(-c2nn3c(c2-c2ccc4ncsc4c2)CCC3)cc1 [Compound 100, 6-(2-(4-Methoxyphenyl)-5,6-dihydro-4H-pyrrolo[1,2-b]pyrazol-3-yl)benzo[d]thiazole] | 3740 | 699
18 | FC(F)(F)c1cccc(-c2nn3c(c2-c2ccc4ncccc4c2)OCC3)c1 [Compound 63, 7-(Quinolin-6-yl)-6-(3-trifluoromethylphenyl)-2,3-dihydropyrazolo[5,1-b]oxazole] | 6030 | 1990
19 | Fc1ccc(-c2nn3c(c2-c2ccc4ncccc4c2)CCC3)cc1 [Compound 45, 6-(2-(4-Fluorophenyl)-5,6-dihydro-4H-pyrrolo[1,2-b]pyrazol-3-yl)quinoline] | 12600 | 1080
20 | Fc1ccc(-c2nn3c(c2-c2ccc4cn[nH]c4c2)CCC3)cc1Cl [Compound 143, 6-(2-(3-Chloro-4-fluorophenyl)-5,6-dihydro-4H-pyrrolo[1,2-b]pyrazol-3-yl)-1H-indazole] | 512 | 221
21 | Fc1ccc(Cl)cc1-c1nn2c(c1-c1ccc3nccnc3c1)CCC2 [Compound 177, 6-(2-(5-Chloro-2-fluorophenyl)-5,6-dihydro-4H-pyrrolo[1,2-b]pyrazol-3-yl)quinoxaline] | 83.5 | 35.6
22 | Cc1cccc(-c2nn3c(c2-c2ccc4[nH]ncc4c2)CCC3)c1 [Compound 7, 5-(2-(m-Tolyl)-5,6-dihydro-4H-pyrrolo[1,2-b]pyrazol-3-yl)-1H-indazole] | 39.7 | 15.1
23 | Fc1ccc(-c2nn3c(c2-c2ccc4nccnc4c2)OCC3)cc1 [Compound 70, 6-(4-Fluorophenyl)-7-(quinoxalin-6-yl)-2,3-dihydropyrazolo[5,1-b]oxazole] | 1370 | 399
24 | Fc1ccc(-c2nn3c(c2-c2ccc4[nH]ncc4c2)CCC3)cc1OC(F)(F)F [Compound 150, 5-(2-(4-Fluoro-3-trifluoromethoxyphenyl)-5,6-dihydro-4H-pyrrolo[1,2-b]pyrazol-3-yl)-1H-indazole] | 1320 | 310
25 | Fc1ccc(-c2nn3c(c2-c2ccc4[nH]ncc4c2)CCC3)cc1Cl [Compound 142, 5-(2-(3-Chloro-4-fluorophenyl)-5,6-dihydro-4H-pyrrolo[1,2-b]pyrazol-3-yl)-1H-indazole] | 344 | 153
26 | Cc1cccc(-c2nn3c(c2-c2ccc4[nH]ncc4c2)OCC3)c1 [Compound 36, 7-(1H-Indazol-5-yl)-6-(m-tolyl)-2,3-dihydropyrazolo[5,1-b]oxazole] | 526 | 104
27 | Clc1cccc(-c2nn3c(c2-c2ccc4nccnc4c2)CCC3)c1 [Compound 57, 6-(2-(3-Chlorophenyl)-5,6-dihydro-4H-pyrrolo[1,2-b]pyrazol-3-yl)quinoxaline] | 398 | 72.4
28 | Cc1cc(-c2nn3c(c2-c2ccc4ncsc4c2)CCC3)c(F)cc1F [Compound 182, 6-(2-(2,4-Difluoro-5-methylphenyl)-5,6-dihydro-4H-pyrrolo[1,2-b]pyrazol-3-yl)benzo[d]thiazole] | 225 | 112
